Legend:
Assay in all cases: relative viability (nuclei count vs DMSO), 5 days (fraction); higher = more cells survive
Neratinib + Luminespib = compound: CCOc1cc2ncc(C#N)c(Nc3ccc(OCc4ccccn4)c(Cl)c3)c2cc1NC(=O)/C=C/CN(C)C [Neratinib] + CCNC(=O)c1noc(-c2cc(C(C)C)c(O)cc2O)c1-c1ccc(CN2CCOCC2)cc1 [Luminespib] (partner 0.01 µM)
Summary of the method: (§1)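 Relative viability was taken as the ratio of nuclei in treated wells to nuclei in vehicle wells. Lung cancer cell lines in 1536-well plates received compounds by pin tool one day after seeding, either one drug alone or a fixed anchor-drug dose plus five library-drug doses (not always all listed) in √10 steps. Nuclei were counted on 4× images after 5 days of treatment, and values are medians of duplicate plates.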

Neratinib + Pictilisib = compound: CCOc1cc2ncc(C#N)c(Nc3ccc(OCc4ccccn4)c(Cl)c3)c2cc1NC(=O)/C=C/CN(C)C [Neratinib] + CS(=O)(=O)N1CCN(Cc2cc3nc(-c4cccc5[nH]ncc45)nc(N4CCOCC4)c3s2)CC1 [Pictilisib] (partner 1 µM)
Summary of the method: as §1

Neratinib + Palbociclib = compound: CCOc1cc2ncc(C#N)c(Nc3ccc(OCc4ccccn4)c(Cl)c3)c2cc1NC(=O)/C=C/CN(C)C [Neratinib] + CC(=O)c1c(C)c2cnc(Nc3ccc(N4CCNCC4)cn3)nc2n(C2CCCC2)c1=O [Palbociclib] (partner 0.5 µM)
Summary of the method: as §1

Neratinib + OSI-027 = compound: CCOc1cc2ncc(C#N)c(Nc3ccc(OCc4ccccn4)c(Cl)c3)c2cc1NC(=O)/C=C/CN(C)C [Neratinib] + COc1cccc2cc(-c3nc([C@H]4CC[C@H](C(=O)O)CC4)n4ncnc(N)c34)[nH]c12 [OSI-027] (partner 0.5 µM)
Summary of the method: as §1

| Cell Line | relative viability (Neratinib + Luminespib; first compound 0.01 µM) | relative viability (Neratinib + Luminespib; first compound 0.03162 µM) | relative viability (Neratinib + Luminespib; first compound 0.1 µM) | relative viability (Neratinib + Luminespib; first compound 0.3162 µM) | relative viability (Neratinib + Luminespib; first compound 1 µM) | relative viability (Neratinib + Pictilisib; first compound 0.01 µM) | relative viability (Neratinib + Pictilisib; first compound 0.03162 µM) | relative viability (Neratinib + Pictilisib; first compound 0.1 µM) | relative viability (Neratinib + Pictilisib; first compound 0.3162 µM) | relative viability (Neratinib + Pictilisib; first compound 1 µM) | relative viability (Neratinib + Palbociclib; first compound 0.01 µM) | relative viability (Neratinib + Palbociclib; first compound 0.03162 µM) | relative viability (Neratinib + Palbociclib; first compound 0.3162 µM) | relative viability (Neratinib + Palbociclib; first compound 1 µM) | relative viability (Neratinib + OSI-027; first compound 0.01 µM) | relative viability (Neratinib + OSI-027; first compound 0.03162 µM) | relative viability (Neratinib + OSI-027; first compound 0.1 µM) | relative viability (Neratinib + OSI-027; first compound 0.3162 µM) | relative viability (Neratinib + OSI-027; first compound 1 µM) | relative viability (Neratinib + Palbociclib; first compound 0.1 µM) |
| --- | --- | --- | --- | --- | --- | --- | --- | --- | --- | --- | --- | --- | --- | --- | --- | --- | --- | --- | --- | --- |
| LK-2 | 0.183 | 0.21 | 0.197 | 0.18 | 0.125 | 0.653 | 0.566 | 0.594 | 0.446 | 0.266 | 0.868 | 0.752 | 0.476 | 0.522 | 0.189 | 0.227 | 0.217 | 0.189 | 0.182 |  |
| PC-14 | 0.176 | 0.129 | 0.156 | 0.116 | 0.129 | 0.927 | 0.805 | 0.66 | 0.121 | 0.101 | 0.625 | 0.672 | 0.0909 | 0.0675 | 0.739 | 0.987 | 0.798 | 0.177 | 0.0699 | 0.474 |
| NCI-H2342 | 0.72 | 0.717 | 0.712 | 0.621 |  |  |  |  |  |  | 0.52 | 0.493 |  | 0.454 | 0.73 | 0.63 | 0.528 | 0.464 | 0.462 | 0.534 |
| HCC-366 |  |  |  |  |  | 0.174 | 0.149 | 0.101 | 0.137 | 0.112 | 0.418 | 0.464 | 0.431 | 0.211 | 1.1 | 0.949 | 0.785 | 0.803 | 0.163 | 0.353 |
| HOP-62 | 0.917 | 0.974 | 0.893 | 0.884 | 0.927 | 0.677 | 0.826 | 0.691 | 0.669 | 0.52 | 0.455 | 0.475 |  | 0.303 | 0.849 | 0.914 | 0.799 | 0.776 | 0.775 | 0.383 |

From the supplement of paper PMC10307832
